# Experimental data reported in PMC6299220 (mBio, 2018).
# Like-named read-outs stand apart in the source and are kept apart here.
# Tests used:
# KasA = KasA (Mycobacterium tuberculosis, UniProt P9WQD9); assay: Microscale thermophoresis (MST) binding assay; conditions: 49.5 nM labeled KasA
# [1] = mouse, microsomes
# M. tuberculosis H37Rv = assay: microbe, parasite or virus in culture; type: cell-based, Mycobacterium tuberculosis
# in vitro [2] = conditions: African green monkey
# [3] = Mouse liver microsomal (MLM) stability; conditions: for half-life: mouse, liver microsomes
# physchem = conditions: pH 7.4, aqueous buffer, kinetic from dmso stock
# in vitro [4] = conditions: mouse, microsomes
# M. tuberculosis 210 = assay: microbe, parasite or virus in culture; type: cell-based; conditions: Mycobacterium tuberculosis
# [5] = system: M. tuberculosis H37Rv gene expression; type: cell-based, Mycobacterium tuberculosis
# M. marinum = assay: MIC, MABA; type: cell-based; conditions: Mycobacterium marinum; M. marinum ATCC wild type
# [6] = system: M. tuberculosis 100-day-old bacilli (persisters); type: cell-based, Mycobacterium tuberculosis
# M. smegmatis = assay: MIC, MABA; type: cell-based; conditions: Mycolicibacterium smegmatis; M. smegmatis wild-type
# M. bovis BCG = assay: microbe, parasite or virus in culture; type: cell-based; conditions: Mycobacterium tuberculosis variant bovis BCG
# M. abscessus = assay: MIC, MABA; type: cell-based; conditions: Mycobacteroides abscessus; M. abscessus ATCC wild type
# M. avium = assay: MIC, MABA; type: cell-based; conditions: Mycobacterium avium; M. avium ATCC wild type
# M. tuberculosis TDR692 = assay: microbe, parasite or virus in culture; type: cell-based; conditions: Mycobacterium tuberculosis
# M. fortuitum = assay: MIC, MABA; type: cell-based; conditions: Mycolicibacterium fortuitum; M. fortuitum ATCC wild type
# [7] = system: mycolic acid biosynthesis in M. tuberculosis H37Rv; type: cell-based, Mycobacterium tuberculosis
# M. tuberculosis = conditions: cited from earlier work
# [8] = Mycobacterium tuberculosis, H37RV
# [9] = MLM stability t1/2 without NADPH, without NADPH
# [10] = MLM stability t1/2 without NADPH
# Chain of KasA (P9WQD9 whole entry): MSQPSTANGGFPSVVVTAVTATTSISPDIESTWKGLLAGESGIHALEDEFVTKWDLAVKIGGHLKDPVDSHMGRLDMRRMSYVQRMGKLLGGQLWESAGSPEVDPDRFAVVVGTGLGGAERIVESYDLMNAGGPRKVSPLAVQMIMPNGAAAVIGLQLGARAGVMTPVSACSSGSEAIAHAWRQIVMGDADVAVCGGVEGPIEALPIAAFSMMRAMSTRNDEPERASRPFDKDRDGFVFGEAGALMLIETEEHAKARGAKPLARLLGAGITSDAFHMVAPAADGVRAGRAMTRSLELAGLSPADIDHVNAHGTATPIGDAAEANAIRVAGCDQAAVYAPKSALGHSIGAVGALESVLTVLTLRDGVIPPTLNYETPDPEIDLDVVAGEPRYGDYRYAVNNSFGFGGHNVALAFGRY
Compound,MLM stability clint [1],MIC (M. tuberculosis H37Rv; [8]) [µM],CC50 (in vitro [2]) [µM],solubility kinetic (physchem) [µM],half-life (in vitro [4]; [10]) [min],half-life (in vitro [4]; MLM stability t1/2) [min],other results
"CCCCS(=O)(=O)Nc1ccc2[nH]nc(C)c2c1 [5g, N-(3-Methyl-1H-indazol-5-yl)butane-1-sulfonamide]",60.3 μl/mi/mg protein,0.2,94,–,–,–,"Kd (KasA): 0.0465 ± 0.0187 µM; improvement in MIC/whole-cell activity over DG167 (M. tuberculosis H37Rv): 2 fold; half-life ([3]; MLM stability t1/2, with NADPH): 11.5 min; half-life [3, 9]: 141 min"
"[2H]C([2H])([2H])n1ncc2ccc(NS(=O)(=O)CCCC)cc21 [5a-30, N-(1-(Methyl-d3)-1H-indazol-6-yl)butane-1-sulfonamide]",41.3 μl/mi/mg protein,–,180,> 500,> 3060,–,half-life (in vitro [4]): 16.8 min
"CCCCS(=O)(=O)Nc1ccc2cnn(CC)c2c1 [5a-3, N-(1-Ethyl-1H-indazol-6-yl)butane-1-sulfonamide]",536 μl/mi/mg protein,6.2,44.4,472,> 3060,1.29,–
"NNC(=O)c1ccncc1 [INH, isoniazid]",–,–,–,–,–,–,"MIC (M. tuberculosis 210): 0.4 µM; Fold change, Rv0885 [5]: 2.044 fold; Fold change, Rv2706c [5]: 2.3 fold; Fold change, Rv3269 [5]: -2.076 fold; Fold change, Rv3352c [5]: 2.131 fold; Fold change, ctpD [5]: 2.334 fold; Fold change, cysA3 [5]: -2.027 fold; Fold change, fadD5 [5]: -2.2153 fold; Fold change, fadD11 [5]: -2.252 fold; Fold change, lprQ [5]: 2.051 fold; Fold change, sapM [5]: 2.01 fold; expression of the kasA, kasB, and acpM genes and the iniBAC operon [5]: strongly induced expression; MIC (M. marinum): > 12 µM; killing of persister cultures [6]: minimal killing; MIC (M. smegmatis): > 12 µM; MIC (M. bovis BCG): 0.4 µM; MIC (M. abscessus): > 12 µM; MIC (M. avium): > 12 µM; MIC (M. tuberculosis TDR692): 0.2 µM; MIC (M. fortuitum): > 12 µM"
"CCCCS(=O)(=O)Nc1ccc2cn[nH]c2c1 [5a-2, N-(1H-Indazol-6-yl)butane-1-sulfonamide]",68.7 μl/mi/mg protein,> 100,–,> 600,–,–,"EC50 (KasA): 1.74 µM; MIC (M. tuberculosis H37Rv): >100 µM; half-life ([3]; MLM stability t1/2, with NADPH): 12.2 min; half-life [3, 9]: > 3060 min; inhibition of mycolic acid biosynthesis [7]: did not show any inhibition"
"CCCCNC(=S)Nc1ccc2cnn(C)c2c1 [5b-1, 1-Butyl-3-(1-methyl-1H-indazol-6-yl)thiourea]",595 μl/mi/mg protein,3.1,25,131,> 3060,1.17,–
"CCOC(=O)Nc1ccc2cnn(C)c2c1 [5d-1, Ethyl (1-methyl-1H-indazol-6-yl)carbamate]",597 μl/mi/mg protein,> 100,110,> 500,–,1.16,–
CC12C[C@@]34C=CC(=O)[C@@](C)(CCC(=O)Nc5c(O)ccc(C(=O)O)c5O)C3[C@H](CC1C4)O2 (some centres unmarked) [platensimycin],–,–,–,–,–,–,whole-cell activity in M. tuberculosis (M. tuberculosis): 27 µM
"CCCCS(=O)(=O)Nc1ccc2cnn(Cc3ccccc3)c2c1 [5a-7, N-(1-Benzyl-1H-indazol-6-yl)butane-1-sulfonamide]",241 μl/mi/mg protein,> 100,–,33.8,> 3060,2.88,–
C=C/C(C)=C/[C@@]1(C)SC(=O)C(C)=C1O [thiolactomycin],–,–,–,–,–,–,whole-cell activity in M. tuberculosis (M. tuberculosis): 142 µM
"CCCCS(=O)(=O)Nc1ccc2cnn(-c3ccccc3)c2c1 [5a-6, N-(1-Phenyl-1H-indazol-6-yl)butane-1-sulfonamide]","1,370 μl/mi/mg protein",> 100,–,33.7,> 3060,0.505,–
1-Methyl-N-pentyl-1H-indazol-6-amine [5f],–,–,–,–,–,–,"MIC (M. tuberculosis H37Rv): >100 µM; Kinetic solubility in pH 7.4 PBS: >500 µM; MLM stability clint ([3]; Table 3): 56.7 μl/mi/mg protein; MLM stability t1/2 ([3]; with NADPH): 12.2 min; MLM stability t1/2 without NADPH ([3]; without NADPH): > 3,060 min"
